From patent US20040142821A1, “Pesticide composition comprising malononitrile compounds” (priority 2001, published 2004)

Key:
[1] = test system: Diabrotica undecimpunctata; assay: Pesticidal test against Diabrotica undecimpunctata, treated filter paper (Test Example 4); format: in vivo, Diabrotica undecimpunctata (southern-corn rootworm); conditions: 50 ppm test liquid (Formulation Example 1), 1 ml on filter paper; 30 to 50 eggs and one germinated corn seed; 25° C.
Protocol: One germinated seed of corn and 30 to 50 eggs of Diabrotica undecimpunctata (southern-corn rootworm) was placed on the filter paper in the polyethylene cup, which was then kept covered and left in a room at 25° C. On the 6th day after, the number of surviving larvae of Diabrotica undecimpunctata was examined.

Cullex pipiens pallens = assay: whole plant or invertebrate; conditions: 24 h
Protocol: In 100 ml of ion-exchanged water, the test liquid had been prepared as described above, was added dropwise in an amount of 0.7 ml (the concentration of active ingredient was 3.5 ppm). Twenty final-instar larvae of Cullex pipiens pallens (common mosquito) were set free in the solution. After 1 days, their survival was examined to determine the mortality.

German cockroach = assay: Pesticidal test against German cockroach, treated filter paper with sucrose bait (Test Example 6); format: in vivo; conditions: Blattella germanica, 144 h; 500 ppm test liquid (Formulation Example 5), 0.7 ml on filter paper; two male adults; after 6 days
Description: Two male adults of German cockroach (Blattalla germanica) were set free in the polyethylene cup, which was then kept covered. After 6 days, their survival was examined to determine the mortality.

Musca domestics = assay: Pesticidal test against Musca domestics, treated filter paper with sucrose bait (Test Example 5); format: in vivo; conditions: 500 ppm test liquid (Formulation Example 5), 0.7 ml on filter paper, ten female adults, after 24 hours
Protocol: Ten female adults of Musca domestics (house fly) were set free in the polyethylene cup, which was then kept covered. After 24 hours, their survival was examined to determine the mortality.

Compound	number of surviving pests on the 6th day after [1]	mortality at 3.5 µg/mL (Cullex pipiens pallens) [%]	mortality at 500 ppm (German cockroach) [%]	melting point [°C]	mortality at 500 ppm (Musca domestics) [%]
C=CCCCC(C#N)(C#N)C(C)c1ccc(Cl)cc1 (stereo not drawn) [Compound 76, 2-(1-(4-chlorophenyl)ethyl)-2-(4-pentenyl)malononitrile]	0	100			
C=CCC(C#N)(C#N)Cc1ccc(Cl)c(Cl)c1 [Compound 23, 2-allyl-2-(3,4-dichlorobenzyl)malononitrile]	0	100	100		
C=CCCC(C#N)(C#N)C(C)c1ccc(OC(F)(F)F)cc1 (stereo not drawn) [Compound 16, 2-(3-butenyl)-2-(1-(4-(trifluoromethoxy)phenyl)ethyl)malononitrile]	0	100	100		
CC/C=C\CCC(C#N)(C#N)Cc1ccc(Cl)cc1 [Compound 73, 2-(4-chlorobenzyl)-2-((Z)-3-hexenyl)malononitrile]				44.8	
C=CCC(C#N)(C#N)Cc1c(F)c(F)c(F)c(F)c1F [Compound 62, 2-allyl-2-(2,3,4,5,6-pentafluorobenzyl)malononitrile]				78.2	
C=CCCC(C#N)(C#N)C(C)c1ccc(Cl)cc1 (stereo not drawn) [Compound 10, 2-(3-butenyl)-2-(1-(4-chlorophenyl)ethyl)malononitrile]	0	100	100		100
CC(C)CC(C#N)(C#N)Cc1ccc(Cl)cc1 [Compound 19, 2-(4-chlorobenzyl)-2-isobutylmalononitrile]	0	100			
N#CC(C#N)(Cc1ccc(Cl)cc1)C1CCCCC1 [Compound 9, 2-(4-chlorobenzyl)-2-cyclohexylmalononitrile]	0	100	100		
C=CCC(C#N)(C#N)C(c1ccc(Cl)cc1)C(C)C (stereo not drawn) [Compound 3, 2-allyl-2-(1-(4-chlorophenyl)-2-methylpropyl)malononitrile]	0	100	100		100
C=CCC(C#N)(C#N)Cc1ccc([N+](=O)[O-])cc1 [Compound 50, 2-allyl-2-(4-nitrobenzyl)malononitrile]				94.2	
C=CCC(C#N)(C#N)Cc1ccc(C)cc1 [Compound 77, 2-allyl-2-(4-methylbenzyl)malononitrile]				74.5	
C=CCC(C#N)(C#N)Cc1ccc(OC(F)(F)F)cc1 [Compound 11, 2-allyl-2-(4-(trifluoromethoxy)benzyl)malononitrile]	0	100	100		100
C=CCC(C#N)(C#N)C(c1cccc(Cl)c1)C(C)C (stereo not drawn) [Compound 66, 2-allyl-2-(1-(3-chlorophenyl)-2-methylpropyl)malononitrile]	0	100			100
C=CCC(C#N)(C#N)Cc1ccc(Cl)cc1Cl [Compound 24, 2-allyl-2-(2,4-dichlorobenzyl)malononitrile]	0	100			100
C=CC(C)C(C#N)(C#N)Cc1ccc(Cl)cc1 (stereo not drawn) [Compound 22, 2-(4-chlorobenzyl)-2-(1-methyl-2-propenyl)malononitrile]	0	100			100
C=CCC(C#N)(C#N)Cc1ccc(Cl)cc1 [Compound 1, 2-allyl-2-(4-chlorobenzyl)malononitrile]	0	100	100		100
C=CCC(C#N)(C#N)C(C)(C)c1ccc(Cl)cc1 [Compound 2, 2-allyl-2-(1-(4-chlorophenyl)-1-methylethyl)malononitrile]	0	100	100		
C=CCCC(C#N)(C#N)C(c1ccc(OC(F)(F)F)cc1)C(C)C (stereo not drawn) [Compound 12]	0				
C=CCC(C#N)(C#N)Cc1ccc(C#N)cc1 [Compound 14, 2-allyl-2-(4-cyanobenzyl)malononitrile]				81.9	
C=CCC(C#N)(C#N)Cc1cccc(Cl)c1 [Compound 17, 2-allyl-2-(3-chlorobenzyl)malononitrile]		100	100		100
C=CCCC(C#N)(C#N)C(c1ccc(Cl)cc1)C(C)C (stereo not drawn) [Compound 26, 2-(3-butenyl)-2-(1-(4-chlorophenyl)-2-methylpropyl)malononitrile]	0	100			
C=CCCC(C#N)(C#N)Cc1ccc(Cl)cc1 [Compound 4, 2-(3-butenyl)-2-(4-chlorobenzyl)malononitrile]	0	100	100		100
CCC(C#N)(C#N)Cc1ccc(Cl)cc1				70.9	
C=CCC(C#N)(C#N)C(OC)c1ccc(Cl)cc1 (stereo not drawn) [Compound 84, 2-allyl-2-(4-chloro-α-methoxybenzyl)malononitrile]		100	100		100
C=CCC(C#N)(C#N)Cc1ccc(C(F)(F)F)cc1 [Compound 5, 2-allyl-2-(4-(trifluoromethyl)benzyl)malononitrile]	0	100	100		
C=CCCCC(C#N)(C#N)Cc1ccc(Cl)cc1 [Compound 21, 2-(4-chlorobenzyl)-2-(4-pentenyl)malononitrile]	0	100			
C=CCC(C#N)(C#N)C(C)c1ccc(Cl)cc1 (stereo not drawn) [Compound 74, 2-allyl-2-(1-(4-chlorophenyl)ethyl)malononitrile]	0	100	100		100
